Source: patent US20030236306A1, “Stabilized formulations of alpha adrenergic receptor antagonists and the uses thereof” (priority 2002, published 2003)

How the values were obtained:
[1] = tested on: anesthesia by lignocaine admixed with epinephrine; conditions: 0.5-1.5 mg, Example 1, Table 1 of the '714 patent; cited from earlier work
[2] = Narrow-range pH-stability profiling at 60° C.; type: physicochemical
Experimental: (§1) The drug is monitored at a detection wavelength of 232 nm.
All samples were stored in the dark.
The phosphate buffers were prepared as previously described. […] Measurement of sample pH was done after HPLC analysis.
In order to precisely define the most favorable pH, a stronger stressing condition was needed to generate a greater extent of degradation in the lower pH region. For this study, the incubation condition was shifted from 40° C. to 60° C. […] Since the extent of degradation after fourteen (14) days was still less than twenty percent (20%) in most samples, zero-order rate kinetics was used for the degradation curves (concentration versus time). The calculated rate constant was plotted against pH to provide the narrow-range pH-stability profile.

[3] = Effect of buffer anion on stability, pH 3, 60° C.; type: physicochemical
Experimental: as §1
Tightly sealed glass vials containing the test solutions were placed in an oven at 40° C. or 60° C. All samples were stored in the dark. Aliquots were removed at designated time points for HPLC analysis and pH measurement.
The test buffers included 50 mM sodium phosphate, 50 mM sodium acetate, 50 mM sodium lactate, 50 mM sodium citrate, and 50 mM sodium succinate buffers at pH 3.
The phosphate and acetate buffers were prepared as described above. The citrate buffer was prepared by adding 9.60 g of citric acid to water, adjusting the pH with 2 N NaOH to pH 3, and bringing the volume to 1 L in a volumetric flask. The lactate buffer was prepared by adding 2.25 g of lactic acid to water, adjusting the pH with 2 N NaOH to pH 3, and bringing the volume to 1L in a volumetric flask. The succinate buffer was prepared by adding 2.95 g succinic acid to water, adjusting the pH with 2 N NaOH to pH 3, and bringing the volume to 1 L in a volumetric flask.
Measurements of sample pH were done after HPLC analysis.

[4] = Sodium Phosphate Buffer pH 2.0, 60° C., Day 0
[5] = Sodium Phosphate Buffer pH 2.0, 60° C., Day 2
[6] = Sodium Phosphate Buffer pH 2.0, 60° C., Day 7
[7] = Sodium Phosphate Buffer pH 2.0, 60° C., Day 14
[8] = Sodium Phosphate Buffer pH 2.5, 60° C., Day 0
[9] = Sodium Phosphate Buffer pH 2.5, 60° C., Day 2
[10] = Sodium Phosphate Buffer pH 2.5, 60° C., Day 7
[11] = Sodium Phosphate Buffer pH 2.5, 60° C., Day 14
[12] = Sodium Phosphate Buffer pH 3.0, 60° C., Day 0
[13] = Sodium Phosphate Buffer pH 3.0, 60° C., Day 2
[14] = Sodium Phosphate Buffer pH 3.0, 60° C., Day 7
[15] = Sodium Phosphate Buffer pH 3.0, 60° C., Day 14
[16] = Sodium Phosphate Buffer pH 3.4, 60° C., Day 0
[17] = Sodium Phosphate Buffer pH 3.4, 60° C., Day 2
[18] = Sodium Phosphate Buffer pH 3.4, 60° C., Day 7
[19] = Sodium Phosphate Buffer pH 3.4, 60° C., Day 14
[20] = Sodium Phosphate Buffer pH 4.0, 60° C., Day 0
[21] = Sodium Phosphate Buffer pH 4.0, 60° C., Day 2
[22] = Sodium Phosphate Buffer pH 4.0, 60° C., Day 7
[23] = Sodium Phosphate Buffer pH 4.0, 60° C., Day 14
[24] = 50 mM Acetate (sodium salt) pH 3.0, 60° C., Day 0
[25] = 50 mM Acetate (sodium salt) pH 3.0, 60° C., Day 2
[26] = 50 mM Acetate (sodium salt) pH 3.0, 60° C., Day 7
[27] = 50 mM Acetate (sodium salt) pH 3.0, 60° C., Day 14
[28] = 50 mM Phosphate (sodium salt) pH 3.0, 60° C., Day 0
[29] = 50 mM Phosphate (sodium salt) pH 3.0, 60° C., Day 2
[30] = 50 mM Phosphate (sodium salt) pH 3.0, 60° C., Day 7
[31] = 50 mM Phosphate (sodium salt) pH 3.0, 60° C., Day 14

Q: Which results are given for `Cc1ccc(N(CC2=NCCN2)c2cccc(O)c2)cc1` [Phentolamine, phentolamine]?
A: duration of anesthesia [1]: reduction in the duration of anesthesia with increasing amounts; pH at which most stable ([2]; 50 mM sodium phosphate, 60° C., FIG. 2): 3.5; Phentolamine Concentration [2, 4]: 98 µg/mL; Phentolamine Purity [2, 4]: 100 % peak area; Phentolamine Concentration [2, 5]: 98 µg/mL; Phentolamine Purity [2, 5]: 99 % peak area; Phentolamine Concentration [2, 6]: 93 µg/mL; Phentolamine Purity [2, 6]: 96 % peak area; Phentolamine Concentration [2, 7]: 81 µg/mL; Phentolamine Purity [2, 7]: 92 % peak area; Phentolamine Concentration [2, 8]: 99 µg/mL; Phentolamine Purity [2, 8]: 99 % peak area; Phentolamine Concentration [2, 9]: 96 µg/mL; Phentolamine Purity [2, 9]: 97 % peak area; Phentolamine Concentration [2, 10]: 78 µg/mL; Phentolamine Purity [2, 10]: 92 % peak area; Phentolamine Concentration [2, 11]: 79 µg/mL; Phentolamine Purity [2, 11]: 86 % peak area; Phentolamine Concentration [2, 12]: 96 µg/mL; Phentolamine Purity [2, 12]: 99 % peak area; Phentolamine Concentration [2, 13]: 93 µg/mL; Phentolamine Purity [2, 13]: 97 % peak area; Phentolamine Concentration [2, 14]: 91 µg/mL; Phentolamine Purity [2, 14]: 95 % peak area; Phentolamine Concentration [2, 15]: 84 µg/mL; Phentolamine Purity [2, 15]: 91 % peak area; Phentolamine Concentration [2, 16]: 97 µg/mL; Phentolamine Purity [2, 16]: 99 % peak area; Phentolamine Concentration [2, 17]: 95 µg/mL; Phentolamine Purity [2, 17]: 98 % peak area; Phentolamine Concentration [2, 18]: 96 µg/mL; Phentolamine Purity [2, 18]: 97 % peak area; Phentolamine Concentration [2, 19]: 91 µg/mL; Phentolamine Purity [2, 19]: 94 % peak area; Phentolamine Concentration [2, 20]: 97 µg/mL; Phentolamine Purity [2, 20]: 99 % peak area; Phentolamine Concentration [2, 21]: 95 µg/mL; Phentolamine Purity [2, 21]: 98 % peak area; Phentolamine Concentration [2, 22]: 94 µg/mL; Phentolamine Purity [2, 22]: 97 % peak area; Phentolamine Concentration [2, 23]: 89 µg/mL; Phentolamine Purity [2, 23]: 96 % peak area; Phentolamine Concentration [3, 24]: 96 µg/mL; Phentolamine Purity [3, 24]: 100 % peak area; Phentolamine Concentration [3, 25]: 95 µg/mL; Phentolamine Purity [3, 25]: 98 % peak area; Phentolamine Concentration [3, 26]: 94 µg/mL; Phentolamine Purity [3, 26]: 97 % peak area; Phentolamine Concentration [3, 27]: 89 µg/mL; Phentolamine Purity [3, 27]: 96 % peak area; Phentolamine Concentration ([3]; 50 mM Citrate (sodium salt) pH 3.0, 60° C., Day 0): 93 µg/mL; Phentolamine Concentration ([3]; 50 mM Citrate (sodium salt) pH 3.0, 60° C., Day 2): 87 µg/mL; Phentolamine Concentration ([3]; 50 mM Citrate (sodium salt) pH 3.0, 60° C., Day 7): 73 µg/mL; Phentolamine Concentration ([3]; 50 mM Citrate (sodium salt) pH 3.0, 60° C., Day 14): 62 µg/mL; Phentolamine Concentration ([3]; 50 mM Lactate (sodium salt) pH 3.0, 60° C., Day 0): 97 µg/mL; Phentolamine Concentration ([3]; 50 mM Lactate (sodium salt) pH 3.0, 60° C., Day 2): 94 µg/mL; Phentolamine Concentration ([3]; 50 mM Lactate (sodium salt) pH 3.0, 60° C., Day 7): 91 µg/mL; Phentolamine Concentration ([3]; 50 mM Lactate (sodium salt) pH 3.0, 60° C., Day 14): 83 µg/mL; Phentolamine Concentration [3, 28]: 96 µg/mL; Phentolamine Purity [3, 28]: 99 % peak area; Phentolamine Concentration [3, 29]: 93 µg/mL; Phentolamine Purity [3, 29]: 97 % peak area; Phentolamine Concentration [3, 30]: 91 µg/mL; Phentolamine Purity [3, 30]: 95 % peak area; Phentolamine Concentration [3, 31]: 84 µg/mL; Phentolamine Purity [3, 31]: 91 % peak area; Phentolamine Concentration ([3]; 50 mM Succinate (sodium salt) pH 3.0, 60° C., Day 0): 96 µg/mL; Phentolamine Concentration ([3]; 50 mM Succinate (sodium salt) pH 3.0, 60° C., Day 2): 88 µg/mL; Phentolamine Concentration ([3]; 50 mM Succinate (sodium salt) pH 3.0, 60° C., Day 7): 74 µg/mL; Phentolamine Concentration ([3]; 50 mM Succinate (sodium salt) pH 3.0, 60° C., Day 14): 64 µg/mL; rank of buffer preference based on amount of phentolamine recovered at the end of the study ([3]; pH 3, 60° C., 14 days): sodium acetate>no buffer (water with pH adjusted to pH 3)>sodium phosphate>sodium lactate>sodium succinate>sodium citrate
